Assay results from US7118895B2, “Process for producing aglycon by using diglycosidase and flavor-improved food containing the aglycon and converting agent to be used in the process” (Amano Enzyme Inc., priority 2000, dated 2006).

Test system: Crude diglycosidase
Test: Examination of substrate concentration in the conversion into isoflavone aglycons by diglycosidase using soybean materials;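 for Decomposition efficiency: ratio of each glycoside/aglycon within its isoflavone family: percent of the isoflavone family total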
Assay type: biochemical, Penicillium multicolor IAM7153
How it was run: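 Soybean materials (roasted soy flour, soymilk, defatted soybean, concentrated soy protein) at 2–30% (w/v) in 20 mM acetate pH 4.0 were reacted with crude diglycosidase at 55° C with shaking; enzyme solution added was 1.88 AU/mL. Samples taken at 0, 1, 3 and 6 h were ethanol-extracted and analyzed by HPLC.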

O=C(O)CC(=O)OC[C@H]1O[C@@H](Oc2cc(O)c3c(=O)c(-c4ccc(O)cc4)coc3c2)[C@H](O)[C@@H](O)[C@@H]1O [malonylgenistin, 6″-O-malonylgenistin]
Decomposition efficiency: ratio of each glycoside/aglycon within its isoflavone family (roasted soy flour, substrate concentration 10%, heat treatment of enzyme no, reaction time 3 h): not detected | Decomposition efficiency: ratio of each glycoside/aglycon within its isoflavone family (roasted soy flour, substrate concentration 10%, heat treatment of enzyme no, reaction time 6 h): not detected | Decomposition efficiency: ratio of each glycoside/aglycon within its isoflavone family (roasted soy flour, substrate concentration 10%, heat treatment of enzyme yes, reaction time 6 h): not detected | Decomposition efficiency: ratio of each glycoside/aglycon within its isoflavone family (roasted soy flour, substrate concentration 20%, heat treatment of enzyme no, reaction time 0 h): not detected | Decomposition efficiency: ratio of each glycoside/aglycon within its isoflavone family (roasted soy flour, substrate concentration 20%, heat treatment of enzyme no, reaction time 1 h): not detected | Decomposition efficiency: ratio of each glycoside/aglycon within its isoflavone family (roasted soy flour, substrate concentration 20%, heat treatment of enzyme no, reaction time 3 h): not detected | Decomposition efficiency: ratio of each glycoside/aglycon within its isoflavone family (roasted soy flour, substrate concentration 20%, heat treatment of enzyme no, reaction time 6 h): not detected | Decomposition efficiency: ratio of each glycoside/aglycon within its isoflavone family (roasted soy flour, substrate concentration 20%, heat treatment of enzyme yes, reaction time 6 h): not detected | Decomposition efficiency: ratio of each glycoside/aglycon within its isoflavone family (roasted soy flour, substrate concentration 30%, heat treatment of enzyme no, reaction time 0 h): not detected | Decomposition efficiency: ratio of each glycoside/aglycon within its isoflavone family (roasted soy flour, substrate concentration 30%, heat treatment of enzyme no, reaction time 1 h): not detected | Decomposition efficiency: ratio of each glycoside/aglycon within its isoflavone family (roasted soy flour, substrate concentration 30%, heat treatment of enzyme no, reaction time 3 h): not detected | Decomposition efficiency: ratio of each glycoside/aglycon within its isoflavone family (roasted soy flour, substrate concentration 30%, heat treatment of enzyme no, reaction time 6 h): not detected | Decomposition efficiency: ratio of each glycoside/aglycon within its isoflavone family (roasted soy flour, substrate concentration 30%, heat treatment of enzyme yes, reaction time 6 h): not detected | Decomposition efficiency: ratio of each glycoside/aglycon within its isoflavone family (soymilk, substrate concentration 2%, heat treatment of enzyme no, reaction time 0 h): 35.0% | Decomposition efficiency: ratio of each glycoside/aglycon within its isoflavone family (soymilk, substrate concentration 2%, heat treatment of enzyme no, reaction time 1 h): 15.3% | Decomposition efficiency: ratio of each glycoside/aglycon within its isoflavone family (soymilk, substrate concentration 2%, heat treatment of enzyme no, reaction time 3 h): 3.5% | Decomposition efficiency: ratio of each glycoside/aglycon within its isoflavone family (soymilk, substrate concentration 2%, heat treatment of enzyme no, reaction time 6 h): 0.0% | Decomposition efficiency: ratio of each glycoside/aglycon within its isoflavone family (soymilk, substrate concentration 2%, heat treatment of enzyme yes, reaction time 6 h): 49.5% | Decomposition efficiency: ratio of each glycoside/aglycon within its isoflavone family (soymilk, substrate concentration 5%, heat treatment of enzyme no, reaction time 0 h): 58.2% | Decomposition efficiency: ratio of each glycoside/aglycon within its isoflavone family (soymilk, substrate concentration 5%, heat treatment of enzyme no, reaction time 1 h): 24.9% | Decomposition efficiency: ratio of each glycoside/aglycon within its isoflavone family (soymilk, substrate concentration 5%, heat treatment of enzyme no, reaction time 3 h): 6.9% | Decomposition efficiency: ratio of each glycoside/aglycon within its isoflavone family (soymilk, substrate concentration 5%, heat treatment of enzyme no, reaction time 6 h): 2.1% | Decomposition efficiency: ratio of each glycoside/aglycon within its isoflavone family (soymilk, substrate concentration 5%, heat treatment of enzyme yes, reaction time 6 h): 52.5% | Decomposition efficiency: ratio of each glycoside/aglycon within its isoflavone family (soymilk, substrate concentration 10%, heat treatment of enzyme no, reaction time 0 h): 56.5% | Decomposition efficiency: ratio of each glycoside/aglycon within its isoflavone family (soymilk, substrate concentration 10%, heat treatment of enzyme no, reaction time 1 h): 31.5% | Decomposition efficiency: ratio of each glycoside/aglycon within its isoflavone family (soymilk, substrate concentration 10%, heat treatment of enzyme no, reaction time 3 h): 11.9% | Decomposition efficiency: ratio of each glycoside/aglycon within its isoflavone family (soymilk, substrate concentration 10%, heat treatment of enzyme no, reaction time 6 h): 4.8% | Decomposition efficiency: ratio of each glycoside/aglycon within its isoflavone family (soymilk, substrate concentration 10%, heat treatment of enzyme yes, reaction time 6 h): 51.2% | Decomposition efficiency: ratio of each glycoside/aglycon within its isoflavone family (soymilk, substrate concentration 20%, heat treatment of enzyme no, reaction time 0 h): 56.3% | Decomposition efficiency: ratio of each glycoside/aglycon within its isoflavone family (soymilk, substrate concentration 20%, heat treatment of enzyme no, reaction time 1 h): 37.6% | Decomposition efficiency: ratio of each glycoside/aglycon within its isoflavone family (soymilk, substrate concentration 20%, heat treatment of enzyme no, reaction time 3 h): 15.7% | Decomposition efficiency: ratio of each glycoside/aglycon within its isoflavone family (soymilk, substrate concentration 20%, heat treatment of enzyme no, reaction time 6 h): 10.7% | Decomposition efficiency: ratio of each glycoside/aglycon within its isoflavone family (soymilk, substrate concentration 20%, heat treatment of enzyme yes, reaction time 6 h): 51.0% | Decomposition efficiency: ratio of each glycoside/aglycon within its isoflavone family (soymilk, substrate concentration 30%, heat treatment of enzyme no, reaction time 0 h): 55.9% | Decomposition efficiency: ratio of each glycoside/aglycon within its isoflavone family (soymilk, substrate concentration 30%, heat treatment of enzyme no, reaction time 1 h): 42.5% | Decomposition efficiency: ratio of each glycoside/aglycon within its isoflavone family (soymilk, substrate concentration 30%, heat treatment of enzyme no, reaction time 3 h): 25.4% | Decomposition efficiency: ratio of each glycoside/aglycon within its isoflavone family (soymilk, substrate concentration 30%, heat treatment of enzyme no, reaction time 6 h): 17.1% | Decomposition efficiency: ratio of each glycoside/aglycon within its isoflavone family (soymilk, substrate concentration 30%, heat treatment of enzyme yes, reaction time 6 h): 50.0% | Decomposition efficiency of genistin family in defatted soybean (substrate concentration 2%, heat treatment of enzyme no, reaction time 0 h): 45.4 | Decomposition efficiency of genistin family in defatted soybean (substrate concentration 2%, heat treatment of enzyme no, reaction time 1 h): 31.4 | Decomposition efficiency of genistin family in defatted soybean (substrate concentration 2%, heat treatment of enzyme no, reaction time 3 h): 17.0 | Decomposition efficiency of genistin family in defatted soybean (substrate concentration 2%, heat treatment of enzyme no, reaction time 6 h): 11.4 | Decomposition efficiency of genistin family in defatted soybean (substrate concentration 2%, heat treatment of enzyme yes, reaction time 6 h): 41.8 | Decomposition efficiency of genistin family in defatted soybean (substrate concentration 5%, heat treatment of enzyme no, reaction time 0 h): 43.9 | Decomposition efficiency of genistin family in defatted soybean (substrate concentration 5%, heat treatment of enzyme no, reaction time 1 h): 38.0 | Decomposition efficiency of genistin family in defatted soybean (substrate concentration 5%, heat treatment of enzyme no, reaction time 3 h): 29.6 | Decomposition efficiency of genistin family in defatted soybean (substrate concentration 5%, heat treatment of enzyme no, reaction time 6 h): 19.0 | Decomposition efficiency of genistin family in defatted soybean (substrate concentration 5%, heat treatment of enzyme yes, reaction time 6 h): 41.1 | Decomposition efficiency of genistin family in defatted soybean (substrate concentration 10%, heat treatment of enzyme no, reaction time 0 h): 41.6 | Decomposition efficiency of genistin family in defatted soybean (substrate concentration 10%, heat treatment of enzyme no, reaction time 1 h): 41.5 | Decomposition efficiency of genistin family in defatted soybean (substrate concentration 10%, heat treatment of enzyme no, reaction time 3 h): 35.1 | Decomposition efficiency of genistin family in defatted soybean (substrate concentration 10%, heat treatment of enzyme no, reaction time 6 h): 29.1 | Decomposition efficiency of genistin family in defatted soybean (substrate concentration 10%, heat treatment of enzyme yes, reaction time 6 h): 39.4
